Experimental data published in PubChem BioAssay AID2124 (Sanford-Burnham Center for Chemical Genomics, 2009).
Results filed as inconclusive are left out. Calls of active or inactive are those of the source. How the calls were made is not given here; tested in MIN6 cells.

Assay: GFP-wavelength compound autofluorescence in cells – imaging, high-content imaging, artefact control, dose response (AID 2124);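 further: cells exposed to compound for 48 hours before fixing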
Details: cells, GFP-channel autofluorescence, high-content imaging, at 10 µM; for z-score: stronger effect = higher value

For `CN(C)CCOCCOc1ccccc1-c1ccccc1`, the z-score was -0.33 (inactive) and the cell count was 3130 cells.
With `CC(=O)NC(c1ccc(Cl)cc1)c1c(O)ccc2ccc(O)cc12` (stereo not drawn) the z-score was -0.38 (inactive) and the cell count was 3140 cells.
In the case of `c1ccc(-n2ncc3c(N4CCN(c5ccccn5)CC4)nc(N4CCCCCC4)nc32)cc1`, the z-score is reported as -0.38 (inactive) and the cell count is reported as 3020 cells.
In the case of `CCn1c(Cn2nnc(-c3ccccc3)n2)nnc1SCC(=O)Nc1ccc(C(C)=O)cc1`, the z-score is reported as -0.33 (inactive) and the cell count is reported as 3180 cells.
In the case of `CCOc1ccc(OCC)c(-c2c(=O)n(OCc3ccc(Cl)cc3)c3ccccc3[n+]2[O-])c1`, the z-score is reported as -0.38 (inactive) and the cell count is reported as 2760 cells.
With `CN(C)S(=O)(=O)Oc1cccc(C(=O)Nc2ccc([N+](=O)[O-])cc2)c1` the z-score was -0.33 (inactive) and the cell count was 2460 cells.
`N#C/C(=C/c1ccc(N2CCCCC2)o1)C(=O)Nc1ccc2ccccc2c1` showed a z-score of 5.59 and a cell count of 3000 cells.
For `CC1(C)c2ccccc2N2CC(=O)NC21/C=C/c1ccco1` (stereo not drawn), the z-score was -0.33 (inactive) and the cell count was 2980 cells.
In the case of `CCn1c2ccccc2c2nnc(SCC(=O)Nc3cc(C)on3)nc21`, the z-score is reported as -0.33 (inactive) and the cell count is reported as 3100 cells.
In the case of `Cc1ccc(NC(=O)CCl)c(C)c1`, the z-score is reported as -0.33 (inactive) and the cell count is reported as 2480 cells.
Work on `CC(=O)c1sc2nc(-c3cccs3)cc(C(F)(F)F)c2c1N` yielded a z-score of 0.17 and a cell count of 3260 cells.
In the case of `Nc1c(C(=O)NC2CCCC2)sc2nc(-c3cccs3)ccc12`, the z-score is reported as -0.31 (inactive) and the cell count is reported as 2460 cells.
In the case of `CCC(=O)Nc1ccc2c(c1)ncn2-c1ccccc1`, the z-score is reported as -0.34 (inactive) and the cell count is reported as 3260 cells.
For `Oc1ccc(Cl)cc1C1=Nc2ccccc2N=C(c2ccco2)C1`, the z-score was -0.35 (inactive) and the cell count was 2660 cells.
Molecule `N#C/C(=C/c1ccc(N2CCOCC2)o1)c1nc2ccccc2[nH]1` has a z-score of 0.11 and a cell count of 2960 cells.
For `CC(=O)OC(C(=O)NCc1ccc(F)cc1)c1ccccn1` (stereo not drawn), the z-score was -0.39 (inactive) and the cell count was 2840 cells.
`CC(=O)Nc1sc(/C(C#N)=C/c2ccc(Cl)c(Cl)c2)nc1-c1ccc(C)cc1` gave a z-score of 1.08 and a cell count of 2880 cells.
In the case of `N#C/C(=C/c1ccc(N2CCOCC2)o1)c1ccc(Br)cc1`, the z-score is reported as 0.24 and the cell count is reported as 555 cells.
Work on `CCCCNc1ccc2c3c(cccc13)C(=O)N(CCCC)C2=O` yielded a z-score of 3.41 and a cell count of 2720 cells.
With `CCOc1ccc(-n2c(SCC(=O)NC(C)CC)nc3n[nH]c(C)c3c2=N)cc1` (stereo not drawn) the z-score was -0.39 (inactive) and the cell count was 2580 cells.
For `OC(COc1cccc2ccccc12)CN1CCN(c2ccccc2Cl)CC1` (stereo not drawn), the z-score was -0.39 (inactive) and the cell count was 3270 cells.
With `CCN(CC)C(=O)c1sc2nc(-c3cccs3)cc(-c3cccs3)c2c1N` the z-score was -0.2 (inactive) and the cell count was 3420 cells.
For `COC(=O)[C@@H](NC(=O)Nc1cccc(OC)c1)C(C)C`, the z-score was -0.39 (inactive) and the cell count was 3030 cells.
With `COc1ccc(C(=O)Nn2cnnc2)cc1OC` the z-score was -0.39 (inactive) and the cell count was 2930 cells.
For `COc1ccc(-n2c(Cc3cccn3C)nnc2SCC(=O)Nc2cccc(C)c2C)cc1`, the z-score was -0.33 (inactive) and the cell count was 3130 cells.
In the case of `N#C/C(=C\C1=C(N2CCOCC2)C(=C/c2cccc([N+](=O)[O-])c2)/CC1)C(=O)Nc1ccccc1F`, the z-score is reported as -0.32 (inactive) and the cell count is reported as 2940 cells.
With `Cc1ccc(C(=O)NCCCn2ccnc2)cc1[N+](=O)[O-]` the z-score was -0.39 (inactive) and the cell count was 3010 cells.
In the case of `NCC12CC3CC(C1)CC(CN)(C3)C2`, the z-score is reported as -0.36 (inactive) and the cell count is reported as 3300 cells.
With `Cc1noc(C)c1S(=O)(=O)N1CCC(C(=O)N2CCN(C3CCCC3)CC2)CC1` the z-score was -0.33 (inactive) and the cell count was 2760 cells.
For `CC(C)(C)C(=O)/C=c1\s/c(=C\c2ccc(-c3ccc([N+](=O)[O-])cc3)o2)c(=O)n1CC(=O)NC(N)=O`, the z-score was 4.23 and the cell count was 3110 cells.
With `C=CCNC(=O)C1CC2Cn3c(nc4cc5ccccc5cc43)C2N1C` (stereo not drawn) the z-score was -0.39 (inactive) and the cell count was 3390 cells.
With `Cc1c(C(c2ccc([N+](=O)[O-])cc2)c2c(C)n(C)n(-c3ccccc3)c2=O)c(=O)n(-c2ccccc2)n1C` the z-score was -0.39 (inactive) and the cell count was 3040 cells.
With `N#C/C(=C\C1=C(N2CCOCC2)C(=C\c2ccc(Cl)cc2)/CC1)C(=O)Nc1ccccc1F` the z-score was -0.24 (inactive) and the cell count was 3010 cells.
For `N=c1oc2c3c4c(cc2cc1C(=O)Nc1ccccc1)CCCN4CCC3`, the z-score was 0.18 and the cell count was 3140 cells.
For `Cc1oc(C)c2c(=O)ccc3c(c12)OC(N)=C(C#N)C3c1ccccc1` (stereo not drawn), the z-score was -0.38 (inactive) and the cell count was 2830 cells.
With `Nc1nnc(-c2cc3c(ccc4ccccc43)oc2=O)s1` the z-score was -0.23 (inactive) and the cell count was 2510 cells.
With `O=C(Nc1ccc(C2CCCCC2)cc1)C1CCCN(c2ncccn2)C1` (stereo not drawn) the z-score was -0.38 (inactive) and the cell count was 2990 cells.
With `CCOc1cc(C)c(S(=O)(=O)Nc2ccc3cn[nH]c3c2)cc1C` the z-score was -0.33 (inactive) and the cell count was 1550 cells.
`Cc1cc(/C=C2\NC(=S)N(C)C2=O)ccc1N1CCCC1` showed a z-score of 0.07 and a cell count of 2980 cells.
For `CC1CCN(C(=O)CNS(=O)(=O)c2ccc(Br)s2)CC1`, the z-score was -0.33 (inactive) and the cell count was 3290 cells.
`Cc1nnc(NC(=O)c2sc3nc(-c4cccs4)cc(C(F)(F)F)c3c2N)s1` showed a z-score of 0.85 and a cell count of 2610 cells.
In the case of `Cc1noc(/C=C/c2ccc(-c3ccccc3Cl)o2)c1[N+](=O)[O-]`, the z-score is reported as 0.5 and the cell count is reported as 3160 cells.
For `CCCc1cc(=O)[nH]c(SCC(=O)NCCCC(=O)OCC)n1`, the z-score was -0.33 (inactive) and the cell count was 3040 cells.
For `Cc1cc(SCCOc2ccccc2)nc(N)n1`, the z-score was -0.39 (inactive) and the cell count was 3470 cells.
In the case of `Cc1cc(C)n(-c2ccc(C(=O)OCC(=O)N(CC(C)C)C3CCS(=O)(=O)C3)cc2)n1` (stereo not drawn), the z-score is reported as -0.33 (inactive) and the cell count is reported as 3480 cells.
Molecule `CN1/C(=C\C=C2/C(=O)Oc3ccccc3C2=O)C(C)(C)c2ccccc21` has a z-score of 3.27 and a cell count of 3310 cells.
In the case of `CC1=CN2C(=N)/C(=C/c3ccc([N+](=O)[O-])o3)C(=O)N=C2S1`, the z-score is reported as 0.75 and the cell count is reported as 348 cells.
With `CCOC(=O)c1cnn(-c2cc(C)nc3c(-c4ccccc4)cnn23)c1N` the z-score was -0.39 (inactive) and the cell count was 3280 cells.
With `Clc1ccc2oc(-c3ccccn3)nc2c1` the z-score was -0.24 (inactive) and the cell count was 2940 cells.
For `CN(CCCNC(=O)CN1C(=O)CC(C)(C)S(=O)(=O)c2ccccc21)C1CCCCC1`, the z-score was -0.33 (inactive) and the cell count was 3030 cells.
For `CCOC(=O)/C(=C\C=C1/Sc2cc(OCC)c(OCC)cc2N1CC)C(C)=O`, the z-score was 0.55 and the cell count was 2790 cells.
With `Nc1c(C(=O)C2CC2)sc2nc(-c3cccs3)cc(C(F)(F)F)c12` the z-score was 0.95 and the cell count was 2750 cells.
With `CCN1CCN(C2=CC3=CC(=C(C#N)C#N)CCC3CC2)CC1` (stereo not drawn) the z-score was 1.63 and the cell count was 3180 cells.
In the case of `COc1ccc(C2C(C(=O)N3CCOCC3)CCC(=O)N2c2ccc(OC)cc2)cc1` (stereo not drawn), the z-score is reported as -0.26 (inactive) and the cell count is reported as 3020 cells.
For `CCn1nnc2sc3c(c2c1=O)CCC(C)C3` (stereo not drawn), the z-score was -0.39 (inactive) and the cell count was 3170 cells.
In the case of `COc1ccc(C2C(C(=O)c3ccccc3)=C(C)Nc3nc4ccccc4n32)c(OC)c1` (stereo not drawn), the z-score is reported as -0.33 (inactive) and the cell count is reported as 3000 cells.
With `Cc1cc(C2C(C#N)=C(N)Oc3n[nH]c(C)c32)c(C)s1` (stereo not drawn) the z-score was -0.25 (inactive) and the cell count was 3010 cells.
`N#C/C(=C/c1ccc(-c2ccccc2)o1)c1nc(-c2cccs2)cs1` gave a z-score of 0.88 and a cell count of 3200 cells.
In the case of `N#Cc1c(C(F)(F)F)cc(-c2ccccc2)nc1SCc1nc(N)nc(N2CCOCC2)n1`, the z-score is reported as 0.32 and the cell count is reported as 3070 cells.
For `O=C(NC1(C(F)(F)F)NC(=O)N(c2ccc(F)c(Cl)c2)C1=O)c1ccncc1` (stereo not drawn), the z-score was -0.39 (inactive) and the cell count was 3240 cells.
For `COC(=O)c1c(NC(=O)CC2Nc3cc(C)c(C)cc3NC2=O)sc(C)c1C` (stereo not drawn), the z-score was -0.38 (inactive) and the cell count was 3120 cells.
For `CCOc1ccc(CNC(=O)CCn2c(=O)oc3ccccc32)cc1`, the z-score was -0.38 (inactive) and the cell count was 3060 cells.
`O=[N+]([O-])c1ccc(C2=NN(c3ccccc3)C(c3ccco3)C2)cc1` (stereo not drawn) gave a z-score of 0.17 and a cell count of 3180 cells.
In the case of `CCOC(=O)c1nnn(-c2nonc2N)c1-c1ccc(OCC)cc1`, the z-score is reported as -0.39 (inactive) and the cell count is reported as 3520 cells.
In the case of `O=C(c1cc([N+](=O)[O-])ccc1N1CCCC1)N1CCCC1`, the z-score is reported as -0.38 (inactive) and the cell count is reported as 3210 cells.
In the case of `N#Cc1ccc(-c2ccc(Cl)cc2)nc1SCC(=O)c1cccc(Cl)c1`, the z-score is reported as -0.27 (inactive) and the cell count is reported as 3130 cells.
For `CC(C)C(C)(C#N)NC(=O)CSc1nnc(C(F)(F)F)n1C` (stereo not drawn), the z-score was -0.33 (inactive) and the cell count was 3010 cells.
For `Cc1cccc(NC(=O)Nc2ccc(C#N)cc2)n1`, the z-score was -0.32 (inactive) and the cell count was 2800 cells.
With `O=[N+]([O-])c1ccc(N(c2ccccc2)c2ccccc2)cc1` the z-score was -0.32 (inactive) and the cell count was 2510 cells.
In the case of `C/C(=N\S(=O)(=O)c1ccc(C)cc1)N1CCN(S(=O)(=O)c2ccccc2)C1`, the z-score is reported as -0.38 (inactive) and the cell count is reported as 3140 cells.
With `CCCc1n[nH]c2c1C(=O)C(C(=O)OC)C(C)(C)C2` (stereo not drawn) the z-score was -0.39 (inactive) and the cell count was 3280 cells.
With `Cc1cc(C)cc(N=Cc2[nH]c3ccc(Br)c(Cl)c3c2O)c1` the z-score was 0.1 and the cell count was 2820 cells.
With `Cc1cccc2sc(NC(=O)C3CCCN(S(=O)(=O)c4cccc5nonc45)C3)nc12` (stereo not drawn) the z-score was -0.28 (inactive) and the cell count was 3130 cells.
With `CCc1cccc2cc3c(N)c(C(=O)Nc4ccc(S(=O)(=O)N5CCCC5)cc4)sc3nc12` the z-score was 0.3 and the cell count was 2430 cells.
With `CCCCNC(=S)NC(=O)c1ccc(Cl)cc1Cl` the z-score was -0.39 (inactive) and the cell count was 3500 cells.
With `Cc1ccnc(N2C(=O)c3cccc4c([N+](=O)[O-])ccc(c34)C2=O)c1` the z-score was 0.09 and the cell count was 350 cells.
With `O=c1c([N+](=O)[O-])cccn1Cc1ccc(F)cc1Cl` the z-score was -0.38 (inactive) and the cell count was 2960 cells.
For `O=S(=O)(Nc1cc2nc3ccccc3nc2n1Cc1ccccc1)c1ccc(Cl)cc1`, the z-score was 0.09 and the cell count was 777 cells.
For `CCn1ncc(Br)c1C(=O)Nc1sc2c(c1C(N)=O)CCC2`, the z-score was -0.39 (inactive) and the cell count was 3350 cells.
